From patent publication US11773062B2, “Deuterated compounds” (priority 2021, dated 2023)

Assays:
[1] = Human liver mitochondrial fraction intrinsic clearance of SPL026 with/without MAO-A and MAO-B inhibitors; assay type: in vitro ADME
From the text: (§1) Human Liver Mitochondrial (HLMt) fractions contain high quantities of MAO enzymes and therefore, provide a useful tool to measure the clearance of MAO substrates.

[2] = tested on: human (mixed gender) hepatocytes; assay: In vitro intrinsic clearance in human hepatocytes with and without MAO-A/B inhibitor combination (first experiment); conditions: for % change in half-life, MAO inhibitors vs no inhibitors / % change in intrinsic clearance, MAO inhibitors vs no inhibitors: human hepatocytes (Table 5)
Description: Standard final incubation conditions are 1 μM compound in buffer containing nominally ˜0.5 million viable cells/mL, ˜0.9% (v/v) acetonitrile (MeCN) and ˜0.1% (v/v) DMSO (specific assay concentrations outlined above, section 2).
Samples are then centrifuged at 4° C.

[3] = Human liver mitochondrial fraction intrinsic clearance of SPL026, SPL028i, SPL028iii, SPL028viii; assay type: in vitro ADME; conditions: for Intrinsic Clearance / half-life: 0.5 mg/mL human liver mitochondrial fraction (Table 10)
From the text: as §1

[4] = In vitro mouse hepatocytic intrinsic clearance; conditions: male, CD-1, mouse, hepatocytes
[5] = target: CYP2C9 (Homo sapiens, UniProt P11712); assay: in vitro; conditions: human, recombinant enzyme, pH 7.4
Chain of CYP2C9 (P11712 whole entry): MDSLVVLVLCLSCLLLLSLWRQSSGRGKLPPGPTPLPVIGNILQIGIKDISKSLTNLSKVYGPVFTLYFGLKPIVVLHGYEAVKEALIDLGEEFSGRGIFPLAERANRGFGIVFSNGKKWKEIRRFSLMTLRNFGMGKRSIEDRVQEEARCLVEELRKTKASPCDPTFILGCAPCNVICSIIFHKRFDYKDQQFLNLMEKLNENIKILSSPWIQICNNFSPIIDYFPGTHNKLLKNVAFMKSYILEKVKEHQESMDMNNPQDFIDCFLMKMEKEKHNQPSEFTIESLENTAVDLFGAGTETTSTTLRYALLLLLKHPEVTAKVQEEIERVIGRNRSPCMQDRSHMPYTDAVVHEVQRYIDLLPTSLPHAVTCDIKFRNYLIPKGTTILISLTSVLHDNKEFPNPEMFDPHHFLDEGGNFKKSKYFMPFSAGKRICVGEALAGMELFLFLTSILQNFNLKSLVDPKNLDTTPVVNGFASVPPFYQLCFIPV
Description: (§2) Samples were taken at predetermined time points.
(§3) Samples were then centrifuged at −4° C.
(§4) Positive control markers are as specified in Table 11.

[6] = target: CYP3A5 (Homo sapiens, UniProt P20815); assay: in vitro; conditions: human, recombinant enzyme, pH 7.4
Chain of CYP3A5 (P20815 whole entry): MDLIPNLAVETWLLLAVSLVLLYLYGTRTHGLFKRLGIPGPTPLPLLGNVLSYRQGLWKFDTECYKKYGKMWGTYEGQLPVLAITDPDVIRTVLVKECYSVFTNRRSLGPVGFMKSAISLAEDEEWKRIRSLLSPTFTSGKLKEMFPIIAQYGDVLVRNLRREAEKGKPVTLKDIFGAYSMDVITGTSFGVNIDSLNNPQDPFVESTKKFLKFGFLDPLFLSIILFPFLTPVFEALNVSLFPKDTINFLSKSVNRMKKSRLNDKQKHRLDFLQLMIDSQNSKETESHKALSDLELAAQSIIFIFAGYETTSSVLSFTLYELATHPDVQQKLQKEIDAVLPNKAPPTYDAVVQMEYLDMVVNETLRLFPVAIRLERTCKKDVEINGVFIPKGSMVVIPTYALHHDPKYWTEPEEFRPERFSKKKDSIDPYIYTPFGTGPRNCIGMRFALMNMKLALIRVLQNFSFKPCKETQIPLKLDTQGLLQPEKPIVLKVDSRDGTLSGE
Description: as §2, §3, §4

[7] = target: CYP3A4 (Homo sapiens, UniProt P08684); assay: in vitro; conditions: human, recombinant enzyme, pH 7.4
Chain of CYP3A4 (P08684 whole entry): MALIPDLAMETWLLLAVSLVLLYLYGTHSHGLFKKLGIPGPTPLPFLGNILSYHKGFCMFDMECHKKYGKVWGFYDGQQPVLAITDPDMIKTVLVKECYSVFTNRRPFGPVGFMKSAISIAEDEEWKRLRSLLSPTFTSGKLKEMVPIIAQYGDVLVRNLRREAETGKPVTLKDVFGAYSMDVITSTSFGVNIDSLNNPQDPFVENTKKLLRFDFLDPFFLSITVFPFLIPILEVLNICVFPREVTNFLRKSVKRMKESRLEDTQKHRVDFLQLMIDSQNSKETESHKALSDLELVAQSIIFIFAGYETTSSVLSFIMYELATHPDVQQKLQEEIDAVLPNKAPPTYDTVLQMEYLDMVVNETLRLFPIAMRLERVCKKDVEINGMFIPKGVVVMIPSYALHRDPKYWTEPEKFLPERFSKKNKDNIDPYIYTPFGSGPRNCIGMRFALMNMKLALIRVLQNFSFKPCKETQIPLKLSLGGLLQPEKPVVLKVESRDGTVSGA
Description: as §2, §3, §4

[8] = target: T1, CYP2C8 (Homo sapiens, UniProt P10632); assay: in vitro; conditions: human, recombinant enzyme, pH 7.4
T1 sequence (P10632 1-490): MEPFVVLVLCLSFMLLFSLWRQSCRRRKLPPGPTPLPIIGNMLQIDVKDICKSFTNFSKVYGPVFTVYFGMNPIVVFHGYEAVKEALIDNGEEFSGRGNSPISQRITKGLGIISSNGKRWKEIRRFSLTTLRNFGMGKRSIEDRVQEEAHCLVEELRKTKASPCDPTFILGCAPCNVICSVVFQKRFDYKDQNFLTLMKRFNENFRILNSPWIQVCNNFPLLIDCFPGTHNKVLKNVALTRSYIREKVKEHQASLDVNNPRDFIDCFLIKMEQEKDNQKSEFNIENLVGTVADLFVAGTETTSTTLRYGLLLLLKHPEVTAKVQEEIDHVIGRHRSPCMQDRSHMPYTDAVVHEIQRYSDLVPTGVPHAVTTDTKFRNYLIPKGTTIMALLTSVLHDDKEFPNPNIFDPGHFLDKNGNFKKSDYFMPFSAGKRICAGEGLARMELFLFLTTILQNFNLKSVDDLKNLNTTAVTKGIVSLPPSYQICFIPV
Description: as §2, §3, §4

[9] = target: CYP2C19 (Homo sapiens, UniProt P33261); assay: in vitro; conditions: human, recombinant enzyme, pH 7.4
Chain of CYP2C19 (P33261 whole entry): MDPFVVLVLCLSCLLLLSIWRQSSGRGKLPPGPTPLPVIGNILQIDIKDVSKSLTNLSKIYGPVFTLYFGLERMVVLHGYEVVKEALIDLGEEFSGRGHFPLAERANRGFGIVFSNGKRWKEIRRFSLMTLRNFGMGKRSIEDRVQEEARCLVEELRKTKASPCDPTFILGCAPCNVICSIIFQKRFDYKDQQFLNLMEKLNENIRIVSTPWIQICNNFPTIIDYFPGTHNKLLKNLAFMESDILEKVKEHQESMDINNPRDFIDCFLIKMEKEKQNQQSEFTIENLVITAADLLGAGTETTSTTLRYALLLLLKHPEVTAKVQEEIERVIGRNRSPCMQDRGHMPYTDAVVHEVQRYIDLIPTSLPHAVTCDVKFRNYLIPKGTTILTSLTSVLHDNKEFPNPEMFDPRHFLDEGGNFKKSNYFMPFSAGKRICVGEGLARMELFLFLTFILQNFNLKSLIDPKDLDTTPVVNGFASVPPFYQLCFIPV
Description: as §2, §3, §4

[10] = tested on: mouse (male CD-1) hepatocytes; assay: In vitro mouse hepatocytic intrinsic clearance; conditions: mouse CD-1 hepatocytes 0.367 million cells/mL, 5 μM (Table 8)
[11] = target: T2, CYP1A2 (Homo sapiens, UniProt P05177); assay: in vitro; conditions: human, recombinant enzyme, pH 7.4
T2 sequence (P05177 1-516): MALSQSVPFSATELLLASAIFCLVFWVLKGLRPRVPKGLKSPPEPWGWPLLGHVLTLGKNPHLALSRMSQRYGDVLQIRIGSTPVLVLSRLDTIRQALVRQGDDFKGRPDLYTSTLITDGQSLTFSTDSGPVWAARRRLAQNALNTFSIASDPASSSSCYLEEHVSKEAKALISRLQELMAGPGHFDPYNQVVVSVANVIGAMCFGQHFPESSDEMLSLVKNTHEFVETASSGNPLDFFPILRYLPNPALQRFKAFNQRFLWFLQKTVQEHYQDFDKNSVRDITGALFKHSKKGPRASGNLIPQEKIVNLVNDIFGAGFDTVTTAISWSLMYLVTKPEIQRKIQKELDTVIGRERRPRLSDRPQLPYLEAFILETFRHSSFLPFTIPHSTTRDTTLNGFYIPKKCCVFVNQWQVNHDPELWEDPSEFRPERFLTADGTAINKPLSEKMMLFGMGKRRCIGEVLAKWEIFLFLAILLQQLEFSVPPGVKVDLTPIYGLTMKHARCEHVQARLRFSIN
Description: as §2, §3, §4

[12] = 0.5 mg/mL human liver mitochondrial fraction, DMSO Vehicle (no inhibitor)
[13] = human hepatocytes, with 100 nM clorgyline + 100 nM deprenyl/selegiline (Table 3)
[14] = human hepatocytes, with MAO-A/B inhibitor combination (Table 5)
[15] = human hepatocytes, with MAO-A/B inhibitors (Table 4; unit given only in Table 5)
[16] = human hepatocytes, without MAO inhibitors (Table 4; unit given only in Table 5)
[17] = human hepatocytes, without MAO-A/B inhibitor combination (Table 5)

SMILES | % change in half-life, MAO inhibitors vs no inhibitors [2] | % change in intrinsic clearance, MAO inhibitors vs no inhibitors [2] | Intrinsic clearance, with inhibitors [2, 13] | Intrinsic clearance, with inhibitors [2, 14] | Intrinsic clearance, without inhibitors [2, 17] | Intrinsic Clearance [3] | half-life at 5 μM [4] | hepatocyte CLint at 5 μM [4] | w Half-life [10] | w Intrinsic clearance [10] | further results
NCc1ccccc1 [Benzylamine, reference compound] | >83.41% | <−450% | <3.0 μL/min/million cells | <3.0 μL/min/million cells | 16.7 μL/min/million cells | 60.0 μL/min/mg protein | 14.3 min | 134 µL/min/1e6 cells |  |  | half-life [1, 12]: 30.4 min; half-life ([1]; human liver mitochondrial fraction, Deprenyl (MAO-B inhibitor) 100 nM): >420.2 min; Half-life, with inhibitors [2, 14]: 460 min; Half-life, with inhibitors [2, 15]: 460.00 min; Half-life, without inhibitors [2, 16]: 76.30 min; Half-life, without inhibitors [2, 17]: 76.3 min; half-life [3]: 23.2 min; fold increase in intrinsic clearance, human liver mitochondria compared to hepatocyte fraction ([3]; positive controls): ~3.6 fold
O=C(O)Cc1ccccc1Nc1c(Cl)cccc1Cl [Diclofenac, reference compound] |  |  |  |  |  |  | 34.1 min | 57.7 µL/min/1e6 cells |  |  | half-life [5]: 1 min; intrinsic clearance, CYP isoform 2C9 [5]: 4731 μL/min/nmol CYP
COc1ccc([C@@H]2Sc3ccccc3N(CCN(C)C)C(=O)[C@@H]2OC(C)=O)cc1 [Diltiazem, reference compound] |  |  |  |  |  |  | < 3 min | > 460 µL/min/1e6 cells |  |  | 
Cc1ncc2n1-c1ccc(Cl)cc1C(c1ccccc1F)=NC2 [Midazolam, reference compound] |  |  |  |  |  |  |  |  |  |  | half-life [6]: 11 min; intrinsic clearance, CYP isoform 3A5 [6]: 623 μL/min/nmol CYP; half-life [7]: 5 min; intrinsic clearance, CYP isoform 3A4 [7]: 1369 μL/min/nmol CYP
CC(C)(O)c1ccccc1CC[C@@H](SCC1(CC(=O)O)CC1)c1cccc(/C=C/c2ccc3ccc(Cl)cc3n2)c1 [Montelukast, reference compound] |  |  |  |  |  |  |  |  |  |  | half-life [8]: 62 min; intrinsic clearance, CYP isoform 2C8 [8]: 122 μL/min/nmol CYP
CC(C)NCC(O)COc1cccc2ccccc12 (stereo not shown) [Propranolol, reference compound] |  |  |  |  |  |  |  |  |  |  | half-life [9]: 12 min
[2H]C([2H])(Cc1c[nH]c2ccccc12)N(C)C [SPL028iii, α,α,-bis-deuterium-N,N-dimethyltryptamine] | 25.93% | −35.65% | 6.90 μL/min/million cells | 6.9 μL/min/million cells | 9.36 μL/min/million cells | 15.0 μL/min/mg protein |  |  | 17.9 min | 106.2 μL/min/million cells | Half-life, with inhibitors [2, 14]: 189.6 min; Half-life, with inhibitors [2, 15]: 189.60 min; half-life [3]: 31.1 min
[2H]C([2H])(Cc1c[nH]c2ccccc12)N(C)C [SPL028iv, α,α,-bis-deuterium-N,N-dimethyltryptamine] | 31.74% | −49.33% | 7.46 μL/min/million cells | 7.46 μL/min/million cells | 11.14 μL/min/million cells |  |  |  | 17.7 min | 106.9 μL/min/million cells | change in intrinsic clearance with the inclusion of MAO inhibitors ([2]; human hepatocytes): 49%; Half-life, with inhibitors [2, 14]: 171.17 min; Half-life, with inhibitors [2, 15]: 171.17 min
[2H]C([2H])(Cc1c[nH]c2ccccc12)N(C)C [SPL028v, α,α,-bis-deuterium-N,N-dimethyltryptamine] | 11.47% | −15.56% | 9.51 μL/min/million cells | 9.51 μL/min/million cells | 10.99 μL/min/million cells |  |  |  | 16.1 min | 117.7 μL/min/million cells | 
[2H]C([2H])(Cc1c[nH]c2ccccc12)N(C)C [SPL028vi, α,α,-bis-deuterium-N,N-dimethyltryptamine] | 20.55% | −26.41% | 10.79 μL/min/million cells | 10.79 μL/min/million cells | 13.64 μL/min/million cells |  |  |  | 16.6 min | 114.0 μL/min/million cells | Half-life, without inhibitors [2, 16]: 95.04 min; Half-life, without inhibitors [2, 17]: 95.04 min
[2H]C([2H])([2H])N(C([2H])([2H])[2H])C([2H])([2H])Cc1c[nH]c2ccccc12 [SPL028viii, α,α,bis-deuterio-N,N-hexadeuterio-dimethyltryptamine] |  |  |  |  |  | 10.9 μL/min/mg protein |  |  |  |  | 
NCCc1c[nH]c2ccc(O)cc12 [Serotonin, reference compound] | 73.75% | −282.18% | 10.10 μL/min/million cells | 10.1 μL/min/million cells | 38.6 μL/min/million cells | 151.0 μL/min/mg protein | 22.8 min | 83 µL/min/1e6 cells |  |  | half-life [1, 12]: 11.1 min; half-life ([1]; human liver mitochondrial fraction, Clorgyline (MAO-A inhibitor) 100 nM): >420.2 min; Half-life, without inhibitors [2, 16]: 33.00 min; Half-life, without inhibitors [2, 17]: 33 min; half-life [3]: 9.2 min
Nc1c2c(nc3ccccc13)CCCC2 [Tacrine, reference compound] |  |  |  |  |  |  |  |  |  |  | half-life [11]: 37 min; intrinsic clearance, CYP isoform 1A2 [11]: 189 μL/min/nmol CYP
